Marks after values point to notes of the source that are not given here.
Test system: adult patients with MDS
Assay: Randomized open-label controlled clinical study of decitabine plus supportive care in MDS patients
Type: in vivo, human
Excerpt: A randomized open-label, controlled clinical study at 23 sites evaluated 170 adult patients with MDS meeting French-American-British (FAB) classification and International Prognostic Scoring System (IPSS) High-Risk, Intermediate-2 and Intermediate-1 prognostic scores.
Eighty-nine patients were randomized to decitabine therapy plus supportive care (only 83 received drug), and 81 to Supportive Care (SC) alone. Patients with Acute Myeloid Leukemia (AML) were not intended to be included.
Decitabine was supplied as a lyophilized powder, 50 mg in 20 mL vials, for reconstitution and injection. Decitabine was reconstituted with 10 mL of Sterile Water for Injection USP to yield a solution of 5 mg/mL decitabine and 6.8 mg/mL KH2PO4. The reconstituted solution was further diluted for intravenous infusion with prechilled (2-8° C.) 0.9% Sodium Chloride solution USP. To slow degradation of study drug, infusion solution was refrigerated at 2-8° C. until administration, for a maximum of 10 hours.
Patients randomized to the decitabine arm received decitabine intravenously infused at a dose of 15 mg/m^2 over a three-hour period, every eight hours, for 3 consecutive days (1 cycle). Each administration of decitabine at a dose of 15 mg/m^2 infused over a three-hour period was a continuous infusion without changing the infusion bag. The total amount of decitabine per day was 45 mg/m^2; the total dose per cycle was 135 mg/m^2. […] For patients with inadequate counts 6 weeks after treatment, the study protocol specified that blood counts be repeated at least weekly during the following two-week interval, and that a reduced-dose cycle (11 mg/m^2 over a three-hour period, every eight hours, for 3 consecutive days) was to be administered if blood counts recovered to within acceptable limits (as defined above) between week 6 and 8.
Delayed myelotoxicity, with a neutrophil nadir reached between about day 18-24, is the primary toxicity of decitabine. Cytopenias, however, are also a hallmark of the MDS disease process, making it difficult to distinguish between treatment-related neutropenia and disease progression. Accordingly, the protocol required that patients showing persistent neutropenia (ANC <1,000/μL) or thrombocytopenia (platelets <50,000/μL) beyond 8 weeks following a decitabine cycle undergo bone marrow aspiration and biopsy. Upon a finding of no disease progression (i.e. only bone marrow aplasia), blood counts were to be monitored for an additional two weeks, and a reduced-dose cycle (as defined above) was to be administered if blood counts recovered to within acceptable limits (as defined above) during weeks 8-10. Patients showing neutropenia or thrombocytopenia beyond 10 weeks were to receive no further decitabine treatment.
Supportive care consisted of blood and blood product transfusions, prophylactic antibiotics, and hematopoietic growth factors. Co-primary endpoints of the study were overall response rate (CR+PR) and time to AML or death. Responses were classified with the MDS International Working Group (IWG) criteria; patients were required to be RBC and platelet transfusion independent during the time of response.

[1] = ITT, N = 89, 15 mg/m^2 3 hr iv infusion every 8 hrs for 3 days
[2] = ITT, N = 89, listed as decitabine
[3] = patients evaluable for response (confirmed MDS at baseline, at least 2 courses)
[4] = patients with adjudicated baseline diagnosis of AML
[5] = patients with cytogenetic abnormalities, MDS IWG criteria

`Nc1ncn([C@H]2C[C@H](O)[C@@H](CO)O2)c(=O)n1` [Decitabine, 5-aza-2′-deoxycytidine] was tested, and the “Response by IPSS Classification (CR + PR)” value (High Risk) was “(13%)”, the “Response by IPSS Classification (CR + PR), responders/patients” value (from here on “Response … (CR + PR), responders/patients”) (High Risk) was 3/23 and the “Median Duration of (CR + PR + HI) response” value (ITT) was 253 days. The “Median time to (CR + PR + HI) response” value (ITT) was 44 days, the “Complete Response (CR)” value (ITT, N = 89) was “(9%)” and the “Complete Response (CR), number of patients” value (ITT, N = 89) was 8. The “Hematologic Improvement (HI)” value (ITT, N = 89) was “(12%)”, the “Hematologic Improvement (HI), number of patients” value (ITT, N = 89) was 11 and the “Overall Improvement Rate (CR + PR + HI)” value (ITT, N = 89) was “(29%)**”. The “Overall Improvement Rate (CR + PR + HI), number of patients” value (ITT, N = 89) was 26, the “Partial Response (PR)” value (ITT, N = 89) was “(8%)” and the “Partial Response (PR), number of patients” value (ITT, N = 89) was 7. For the same compound, the “Overall Response Rate (CR + PR)” value [1] was 17%, the “Overall Response Rate (CR + PR), number of patients” value [1] was 15 and the “Hematologic Improvement (HI)” value [2] was 12%. For the same compound, the “Overall Improvement Rate (CR + PR + HI)” value [2] was 29%, the “Response by IPSS Classification (CR + PR)” value (Int-1) was “(14%)” and the “Response … (CR + PR), responders/patients” value (Int-1) was 4/28. The “Response by IPSS Classification (CR + PR)” value (Int-2) was “(21%)”, the “Response … (CR + PR), responders/patients” value (Int-2) was 8/38 and the “Patients who became transfusion independent” value (RBC transfusion dependent at baseline) was 39%. The “RBC and platelet transfusion status of responders” value (all 15 responders, in the absence of growth factors) was “remained or became RBC and platelet transfusion independent”, the “Quality of Life assessment (EORTC scale)” value (baseline, end of each treatment cycle and post-treatment) was “less dyspnea, less fatigue and better physical functioning and global health status” and the “Median time to AML or death” value (decitabine arm, p=0.160, ns vs SC) was 340 days. The “Cycle by which all responders had responded” value (decitabine patients who responded) was “by the fourth cycle”, the “Median Duration of (CR + PR) response” value (decitabine responders) was 266 days and the “Median time to (CR + PR) response” value (decitabine responders) was 89 days. The Overall response rate [3] was 21%, the “Overall response rate, responders/patients” value [3] was 12/56 and the “Objective response (CR or PR)” value [4] was 56%. The “Objective response (CR or PR), responders/patients” value [4] was 5/9, the Major cytogenetic responses [5] was 21% and the “Major cytogenetic responses, responders/patients” value [5] was 10/48. For the same compound, the “Minor cytogenetic response, number of patients” value [5] was “one” and the “Patients who became transfusion dependent” value (transfusion independent at baseline) was 15%.

Source: US20070105792A1, “Administration Of DNA Methylation Inhibitors For Treating Epigenetic Diseases” (priority 2005, published 2007)
